Active and inactive are the calls of the source.
Assays:
[1] = Luminescence Cell-Based Dose Response HTS to Identify Activators of Luciferase Translation or Activity in H4 […] Cells. [Related pubchem assays: 1829 (Project Summary), 1814 (Primary HTS)]; assay type: functional
[2] = Luminescence Cell-Based Dose Confirmation HTS to Identify Activators of 5'UTR Stem-Loop Driven Alpha-Synuclein mRNA Translation in H4 Neuroglioblastoma Cells. [Related pubchem assays: 1829 (Project Summary), 1814 (Primary HTS)]; assay type: functional
[3] = system: H4; experiment: Luminescence Cell-Based Dose Response HTS to Identify Activators of 5'UTR Stem-Loop Driven Prion Protein mRNA Translation in H4 Neuroglioblastoma Cells. [Related pubchem assays: 1829 (Project Summary), 1814 (Primary HTS)]; assay type: functional; details: Homo sapiens
[4] = biological target: Voltage-gated inwardly rectifying potassium channel KCNH2 (Homo sapiens, UniProt Q12809); experiment: hERG protection from proarrhythmic block, potency, dose response, cell-based, thallium flux (AID 2121); assay type: ADME
[5] = cytotoxicity toward NIH3T3 fibroblasts, dose response, counter-screen, cell-based, ATP luminescence, mouse fibroblasts (AID 2010); assay type: functional;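 note: cells exposed to compound for about 90 hours before reading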
[6] = cells
[7] = inhibitors of intracellular T. cruzi replication, confirmation, NIH3T3 host cells, beta-gal luminescence (AID 2044); assay type: functional, cell-based;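 note: intracellular parasites grown in NIH/3T3 mouse fibroblasts as host cells; luminescent beta-galactosidase reporter signal from transgenic T. cruzi replicating inside host cells; inhibitors lower the luminescence signal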
[8] = biological target: Genome polyprotein (dengue virus type 2, UniProt P29990); experiment: Dengue-2 NS5 methyltransferase inhibitors, primary screen, biochemical, confirmation dose response (AID 588689); assay type: functional
[9] = biological target: Induced myeloid leukemia cell differentiation protein Mcl-1 (Homo sapiens, UniProt Q07820); assay type: functional
[10] = biological target: T1, Zinc finger protein mex-5 (Caenorhabditis elegans, UniProt Q9XUB2); experiment: MEX-5/TCR-2 RNA interaction inhibitors, dose response, biochemical, C. elegans, fluorescence polarization (AID 1960)
T1 sequence (Q9XUB2 whole entry): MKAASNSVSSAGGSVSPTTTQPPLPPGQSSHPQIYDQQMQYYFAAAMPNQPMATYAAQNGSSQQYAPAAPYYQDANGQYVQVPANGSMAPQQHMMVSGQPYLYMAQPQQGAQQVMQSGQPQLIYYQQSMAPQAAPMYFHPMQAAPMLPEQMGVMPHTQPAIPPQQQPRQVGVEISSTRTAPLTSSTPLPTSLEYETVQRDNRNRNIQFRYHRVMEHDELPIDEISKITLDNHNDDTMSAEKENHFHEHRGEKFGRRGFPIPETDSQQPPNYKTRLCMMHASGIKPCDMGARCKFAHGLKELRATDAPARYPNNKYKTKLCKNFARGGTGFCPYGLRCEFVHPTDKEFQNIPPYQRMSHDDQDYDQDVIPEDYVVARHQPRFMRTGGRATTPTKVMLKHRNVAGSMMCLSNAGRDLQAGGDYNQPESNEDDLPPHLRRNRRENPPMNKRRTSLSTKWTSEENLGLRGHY

[11] = biological target: T2, Tyrosine-protein phosphatase non-receptor type 7 (Homo sapiens, UniProt P35236); experiment: redox-dependent HePTP inhibition, mechanism study, biochemical, fluorescence (AID 2068); assay type: functional
T2 sequence (P35236 whole entry): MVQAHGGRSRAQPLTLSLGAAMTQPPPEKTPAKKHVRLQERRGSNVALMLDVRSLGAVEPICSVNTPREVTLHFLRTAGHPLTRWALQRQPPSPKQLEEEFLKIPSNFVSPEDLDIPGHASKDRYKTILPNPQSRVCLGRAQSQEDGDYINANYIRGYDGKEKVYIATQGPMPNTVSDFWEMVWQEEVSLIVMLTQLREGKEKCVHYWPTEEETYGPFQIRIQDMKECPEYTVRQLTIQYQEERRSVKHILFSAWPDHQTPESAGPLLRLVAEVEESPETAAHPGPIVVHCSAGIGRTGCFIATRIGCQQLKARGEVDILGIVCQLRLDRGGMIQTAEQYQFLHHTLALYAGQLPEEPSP

[12] = biological target: T3, RNA-binding protein pos-1 (Caenorhabditis elegans, UniProt G5EF15); experiment: inhibitors of POS-1/mex-3 RNA binding, dose response, biochemical, fluorescence polarization (AID 1964);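 note: purified POS-1 fused to maltose binding protein made in E. coli; potency of compounds blocking POS-1 binding to fluorescent RNA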
T3 sequence (G5EF15 whole entry): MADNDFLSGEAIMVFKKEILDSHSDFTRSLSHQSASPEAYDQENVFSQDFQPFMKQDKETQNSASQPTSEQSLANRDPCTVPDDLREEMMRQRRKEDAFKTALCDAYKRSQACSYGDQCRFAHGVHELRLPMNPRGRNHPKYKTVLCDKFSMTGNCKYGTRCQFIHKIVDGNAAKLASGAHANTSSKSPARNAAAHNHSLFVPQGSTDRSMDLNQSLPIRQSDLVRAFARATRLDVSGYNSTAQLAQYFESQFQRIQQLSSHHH

[13] = biological target: Estrogen receptor beta (Homo sapiens, UniProt Q92731); experiment: ERβ–SRC-3 coactivator interaction inhibitors, confirmation, orthogonal assay, biochemical, ELISA, streptavidin-HRP readout (AID 1060)
[14] = biological target: T4, Coagulation factor XII (Homo sapiens, UniProt P00748); assay type: functional;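 note: activated factor XIIa alpha cleaving a fluorogenic AMC peptide substrate; inhibitor potency from loss of enzyme activity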
T4 sequence (P00748 whole entry): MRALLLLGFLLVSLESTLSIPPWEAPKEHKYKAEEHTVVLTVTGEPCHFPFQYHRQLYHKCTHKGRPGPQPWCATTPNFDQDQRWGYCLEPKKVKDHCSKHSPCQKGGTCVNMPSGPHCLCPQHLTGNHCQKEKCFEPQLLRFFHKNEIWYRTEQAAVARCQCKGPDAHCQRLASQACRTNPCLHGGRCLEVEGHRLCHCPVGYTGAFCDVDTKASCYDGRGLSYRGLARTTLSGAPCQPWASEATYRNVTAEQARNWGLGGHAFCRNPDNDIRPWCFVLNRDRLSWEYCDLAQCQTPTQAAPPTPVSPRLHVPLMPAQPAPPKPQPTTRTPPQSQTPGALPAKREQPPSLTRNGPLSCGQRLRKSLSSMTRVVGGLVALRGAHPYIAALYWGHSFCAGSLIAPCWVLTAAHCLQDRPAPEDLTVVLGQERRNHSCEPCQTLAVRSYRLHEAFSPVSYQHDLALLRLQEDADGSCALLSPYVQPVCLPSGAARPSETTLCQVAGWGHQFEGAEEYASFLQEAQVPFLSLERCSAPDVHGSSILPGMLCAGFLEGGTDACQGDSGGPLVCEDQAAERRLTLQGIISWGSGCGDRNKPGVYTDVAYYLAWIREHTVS

[15] = biological target: Ephrin type-A receptor 4 (Mus musculus, UniProt Q03137); experiment: inhibitors of EphA4 binding to KYL peptide, primary screen, biochemical, colorimetric, mouse EphA4 (AID 689); assay type: functional
[16] = biological target: Heat shock protein HSP 90-alpha (Homo sapiens, UniProt P07900); assay type: functional, organism-based
[17] = biological target: T5, Estrogen receptor (Homo sapiens, UniProt P03372);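 note: potency for inhibiting coactivator peptide recruitment to the receptor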
T5 sequence (P03372 whole entry): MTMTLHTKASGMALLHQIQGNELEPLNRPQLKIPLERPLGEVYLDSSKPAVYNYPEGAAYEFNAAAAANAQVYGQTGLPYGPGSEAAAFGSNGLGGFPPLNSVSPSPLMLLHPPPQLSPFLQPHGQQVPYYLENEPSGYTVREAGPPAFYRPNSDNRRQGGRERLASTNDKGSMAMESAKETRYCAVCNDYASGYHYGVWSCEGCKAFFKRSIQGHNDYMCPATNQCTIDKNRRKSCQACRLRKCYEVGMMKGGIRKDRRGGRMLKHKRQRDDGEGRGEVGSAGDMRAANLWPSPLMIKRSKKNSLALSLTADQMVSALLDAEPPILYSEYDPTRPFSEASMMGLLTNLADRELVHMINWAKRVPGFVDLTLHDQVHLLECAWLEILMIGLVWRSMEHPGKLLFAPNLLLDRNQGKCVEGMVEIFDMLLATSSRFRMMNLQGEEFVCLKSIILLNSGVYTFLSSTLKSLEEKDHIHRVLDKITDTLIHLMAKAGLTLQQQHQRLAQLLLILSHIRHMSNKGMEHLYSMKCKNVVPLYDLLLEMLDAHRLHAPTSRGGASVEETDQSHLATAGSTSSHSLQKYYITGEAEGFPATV

Sequence of Voltage-gated inwardly rectifying potassium channel KCNH2 (Q12809 whole entry): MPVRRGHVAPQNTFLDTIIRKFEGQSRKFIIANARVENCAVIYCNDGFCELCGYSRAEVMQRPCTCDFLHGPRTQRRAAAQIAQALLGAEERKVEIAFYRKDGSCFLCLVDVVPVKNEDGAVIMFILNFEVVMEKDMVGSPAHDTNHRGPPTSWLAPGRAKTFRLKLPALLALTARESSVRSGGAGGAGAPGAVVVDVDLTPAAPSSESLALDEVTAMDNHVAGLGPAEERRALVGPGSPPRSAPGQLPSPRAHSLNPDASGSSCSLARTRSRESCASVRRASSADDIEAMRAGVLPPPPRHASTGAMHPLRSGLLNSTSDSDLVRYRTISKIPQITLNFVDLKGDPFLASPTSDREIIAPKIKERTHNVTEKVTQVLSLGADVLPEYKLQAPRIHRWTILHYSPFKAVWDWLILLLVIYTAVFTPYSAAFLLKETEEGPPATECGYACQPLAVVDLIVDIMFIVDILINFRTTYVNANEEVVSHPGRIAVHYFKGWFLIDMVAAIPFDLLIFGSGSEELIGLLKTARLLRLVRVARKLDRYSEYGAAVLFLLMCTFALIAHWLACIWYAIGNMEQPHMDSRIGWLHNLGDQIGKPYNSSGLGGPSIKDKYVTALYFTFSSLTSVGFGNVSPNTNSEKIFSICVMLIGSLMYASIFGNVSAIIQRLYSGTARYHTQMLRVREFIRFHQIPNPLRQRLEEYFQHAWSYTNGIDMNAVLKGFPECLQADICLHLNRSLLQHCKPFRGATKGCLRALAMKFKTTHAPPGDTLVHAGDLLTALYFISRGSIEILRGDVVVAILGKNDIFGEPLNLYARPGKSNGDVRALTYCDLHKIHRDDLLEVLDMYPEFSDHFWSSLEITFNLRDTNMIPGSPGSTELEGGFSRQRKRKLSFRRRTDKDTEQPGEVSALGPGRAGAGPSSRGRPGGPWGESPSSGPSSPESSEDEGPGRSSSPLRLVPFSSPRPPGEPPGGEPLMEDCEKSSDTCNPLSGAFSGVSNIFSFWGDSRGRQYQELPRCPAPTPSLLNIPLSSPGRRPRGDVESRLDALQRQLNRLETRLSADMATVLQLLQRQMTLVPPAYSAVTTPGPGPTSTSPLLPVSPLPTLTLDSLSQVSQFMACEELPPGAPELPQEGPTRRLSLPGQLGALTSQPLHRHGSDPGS
Sequence of Ephrin type-A receptor 4 (Q03137 whole entry): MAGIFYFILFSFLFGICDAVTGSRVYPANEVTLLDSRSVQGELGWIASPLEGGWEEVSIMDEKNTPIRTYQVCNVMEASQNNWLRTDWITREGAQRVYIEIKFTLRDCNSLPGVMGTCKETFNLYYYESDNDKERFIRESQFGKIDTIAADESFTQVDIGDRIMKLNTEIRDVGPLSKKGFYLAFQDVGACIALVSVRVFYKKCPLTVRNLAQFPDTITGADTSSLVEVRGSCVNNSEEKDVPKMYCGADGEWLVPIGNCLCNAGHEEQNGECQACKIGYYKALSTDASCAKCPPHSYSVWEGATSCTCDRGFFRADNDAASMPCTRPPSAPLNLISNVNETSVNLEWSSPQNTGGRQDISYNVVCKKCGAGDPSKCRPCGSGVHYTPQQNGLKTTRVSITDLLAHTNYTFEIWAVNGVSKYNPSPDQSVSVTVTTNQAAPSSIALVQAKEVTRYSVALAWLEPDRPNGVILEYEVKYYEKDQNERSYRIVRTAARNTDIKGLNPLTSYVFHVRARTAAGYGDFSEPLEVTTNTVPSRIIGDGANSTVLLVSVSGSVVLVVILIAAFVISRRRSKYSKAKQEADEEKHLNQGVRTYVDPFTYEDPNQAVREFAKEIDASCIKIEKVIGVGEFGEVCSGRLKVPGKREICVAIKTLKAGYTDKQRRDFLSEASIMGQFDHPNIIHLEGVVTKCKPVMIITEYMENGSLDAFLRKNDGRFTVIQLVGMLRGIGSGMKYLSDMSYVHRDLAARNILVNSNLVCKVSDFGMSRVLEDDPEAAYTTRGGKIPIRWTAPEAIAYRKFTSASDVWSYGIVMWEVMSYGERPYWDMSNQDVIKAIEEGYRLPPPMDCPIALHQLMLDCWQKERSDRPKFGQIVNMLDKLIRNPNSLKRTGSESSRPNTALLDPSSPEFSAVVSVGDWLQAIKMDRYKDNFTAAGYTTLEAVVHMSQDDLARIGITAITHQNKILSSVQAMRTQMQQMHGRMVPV
Sequence of Genome polyprotein (P29990 2492-3391 limits assumed): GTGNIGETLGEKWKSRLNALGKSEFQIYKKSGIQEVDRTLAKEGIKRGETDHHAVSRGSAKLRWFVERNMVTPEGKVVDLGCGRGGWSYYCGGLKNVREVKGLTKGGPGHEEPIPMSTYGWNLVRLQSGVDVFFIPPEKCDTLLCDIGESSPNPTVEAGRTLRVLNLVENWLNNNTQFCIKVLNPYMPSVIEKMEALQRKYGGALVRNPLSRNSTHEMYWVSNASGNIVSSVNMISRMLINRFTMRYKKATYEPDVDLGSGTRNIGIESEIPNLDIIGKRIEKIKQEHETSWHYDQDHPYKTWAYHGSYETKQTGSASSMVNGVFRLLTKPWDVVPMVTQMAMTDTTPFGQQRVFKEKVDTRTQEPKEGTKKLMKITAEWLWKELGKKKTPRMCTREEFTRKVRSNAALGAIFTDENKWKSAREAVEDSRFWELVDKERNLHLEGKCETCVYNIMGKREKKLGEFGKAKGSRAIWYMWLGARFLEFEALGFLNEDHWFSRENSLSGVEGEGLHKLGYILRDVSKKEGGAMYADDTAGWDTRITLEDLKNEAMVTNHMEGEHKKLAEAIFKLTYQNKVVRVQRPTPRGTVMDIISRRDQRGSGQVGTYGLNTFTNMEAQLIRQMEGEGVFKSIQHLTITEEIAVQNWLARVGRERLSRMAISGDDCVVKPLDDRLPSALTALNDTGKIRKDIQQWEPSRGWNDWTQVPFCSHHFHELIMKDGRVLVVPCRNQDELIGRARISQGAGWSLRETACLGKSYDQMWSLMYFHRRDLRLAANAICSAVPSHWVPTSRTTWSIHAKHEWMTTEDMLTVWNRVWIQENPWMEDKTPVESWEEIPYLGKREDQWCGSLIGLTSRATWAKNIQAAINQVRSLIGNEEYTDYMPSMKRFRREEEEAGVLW
Sequence of Estrogen receptor beta (Q92731 whole entry): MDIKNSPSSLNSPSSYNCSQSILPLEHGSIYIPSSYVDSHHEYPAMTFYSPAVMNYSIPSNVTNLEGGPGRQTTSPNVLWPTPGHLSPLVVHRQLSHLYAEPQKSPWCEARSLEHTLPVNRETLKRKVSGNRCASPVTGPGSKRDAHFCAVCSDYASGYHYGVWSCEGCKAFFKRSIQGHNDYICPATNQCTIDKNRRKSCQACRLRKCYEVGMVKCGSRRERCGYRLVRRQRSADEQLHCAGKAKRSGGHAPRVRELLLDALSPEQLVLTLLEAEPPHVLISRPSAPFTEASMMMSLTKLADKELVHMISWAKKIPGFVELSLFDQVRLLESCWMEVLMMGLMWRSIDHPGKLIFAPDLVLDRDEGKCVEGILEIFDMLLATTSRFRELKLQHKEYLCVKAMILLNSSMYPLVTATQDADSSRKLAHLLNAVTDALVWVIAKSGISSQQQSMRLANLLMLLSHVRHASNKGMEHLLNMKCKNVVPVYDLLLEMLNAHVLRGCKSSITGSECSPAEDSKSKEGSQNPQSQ
Sequence of Induced myeloid leukemia cell differentiation protein Mcl-1 (Q07820 whole entry): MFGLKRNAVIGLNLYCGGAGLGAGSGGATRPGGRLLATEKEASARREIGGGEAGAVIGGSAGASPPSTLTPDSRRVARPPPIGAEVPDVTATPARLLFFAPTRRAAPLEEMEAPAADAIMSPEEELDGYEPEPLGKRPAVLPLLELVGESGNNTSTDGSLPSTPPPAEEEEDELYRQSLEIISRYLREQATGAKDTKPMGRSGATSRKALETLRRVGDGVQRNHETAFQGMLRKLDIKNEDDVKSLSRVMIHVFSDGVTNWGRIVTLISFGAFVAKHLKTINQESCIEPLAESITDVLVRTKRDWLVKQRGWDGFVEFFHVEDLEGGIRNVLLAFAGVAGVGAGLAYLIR

**Q.** Which EC50 [1] does the source give for `COc1cccc([C@@H]2Oc3ccc(OC)cc3C(=O)[C@H]2OC(=O)NCc2ccc3c(c2)OCO3)c1` here?
**A.** Its EC50 is 16.6 µM (active).

**Q.** What about the EC50 [2] of the same molecule?
**A.** Its EC50 is 16.3 µM (active).

**Q.** What about the EC50 [3] of the same molecule?
**A.** The EC50 was 46.4 µM (active).

**Q.** And the EC50 [4]?
**A.** Its EC50 is 4.06 µM (active).

**Q.** With `COc1ccc(N2CCN(C(CNC(=O)Oc3ccccc3)c3cccnc3)CC2)cc1` (stereo not drawn) as the molecule, how does the EC50 [5] read?
**A.** Its EC50 is > 30 µM (not active).

**Q.** And the EC50 [6]?
**A.** Its EC50 is 0.087 µM (active).

**Q.** What about the EC50 [7] of the same molecule?
**A.** Its EC50 is < 0.1 µM (active).

**Q.** With `c1coc(-c2nc3ccccc3nc2-c2ccco2)c1` as the molecule, how does the IC50 [8] read?
**A.** Its IC50 is > 100 µM (active).

**Q.** What about the IC50 [9] of the same molecule?
**A.** Its IC50 is < 0.4 µM (active).

**Q.** What about the EC50 [10] of the same molecule?
**A.** Its EC50 is 12 µM (active).

**Q.** What about the IC50 [11] of the same molecule?
**A.** Its IC50 is 12.4 µM (active).

**Q.** And the EC50 [12]?
**A.** The EC50 was 21.6 µM (active).

**Q.** What about the IC50 [13] of the same molecule?
**A.** The IC50 was < 0.023 µM (not active).

**Q.** And the IC50 [14]?
**A.** Its IC50 is > 50 µM (inactive).

**Q.** Which IC50 [15] does the source give for `CC1CCCN(c2nc3ccccc3nc2C(C#N)C(=O)OC2CCCCC2)C1` (stereo not drawn) here?
**A.** The IC50 was 9.81 µM (active).

**Q.** What does the source list for `O=C(CCSc1ccc(Br)cc1)c1ccc(O)cc1`?
**A.** AC50 [16]: 1.81 µM (active); EC50 [4]: 1.17 µM (active)

**Q.** For `Cc1onc(-c2c(F)cccc2Cl)c1C(=O)OCC(=O)NCc1ccco1`, which IC50 [17] is on record?
**A.** Its IC50 is 38.6 µM (not active).

Source: ChEMBL document CHEMBL1201862, “PubChem BioAssay data set” (2004)
